Data taken from the CheMixHub viscosity set.
Several values for one entry are separate records, joined by “and”; a condition that tells them apart may be missing. Identical values can stand only once.

Assay: xn = mol fraction of the nth substance listed

Oc1cccc(Cl)c1 + CCO
Details | viscosity [mPa·s]
298.15 K, 101 kPa, x1 = 0.5 | 1.45

CCOCCOCCOCC + CCOC(=O)OCC
viscosity [mPa·s], 101.33 kPa
Details | 298.15 K | 308.15 K | 318.15 K
x1 = 0.0221 | 0.763 | 0.667 | 0.584
x1 = 0.0409 | 0.776 | 0.675 | 0.592
x1 = 0.0945 | 0.812 | 0.699 | 0.609
x1 = 0.1858 | 0.863 | 0.741 | 0.643
x1 = 0.2214 | 0.89 | 0.758 | 0.656
x1 = 0.2775 | 0.923 | 0.784 | 0.677
x1 = 0.3669 | 0.972 | 0.822 | 0.707
x1 = 0.4971 | 1.041 | 0.879 | 0.747
x1 = 0.5997 | 1.092 | 0.917 | 0.775
x1 = 0.6836 | 1.133 | 0.947 | 0.801
x1 = 0.7747 | 1.17 | 0.979 | 0.825
x1 = 0.8683 | 1.214 | 1.009 | 0.849
x1 = 0.9296 | 1.239 | 1.027 | 0.862
x1 = 0.9694 | 1.255 | 1.04 | 0.871

O=C(OCc1ccccc1)c1ccccc1 + CCOC(=O)c1ccccc1
298.15 K, 101 kPa
Details | viscosity [mPa·s]
x2 = 0.0465 | 8.039
x2 = 0.1549 | 6.898
x2 = 0.2475 | 6.108
x2 = 0.2973 | 5.695
x2 = 0.3945 | 4.948
x2 = 0.5054 | 4.309
x2 = 0.5941 | 3.74
x2 = 0.6906 | 3.249
x2 = 0.8023 | 2.749
x2 = 0.8963 | 2.371

O=C(OCc1ccccc1)c1ccccc1 + CCOC(=O)c1ccccc1C(=O)OCC
313.15 K, 101.33 kPa
Details | viscosity [mPa·s]
x1 = 0.25 | 5.87
x1 = 0.5 | 5.54
x1 = 0.75 | 5.27

O=C(OCc1ccccc1)c1ccccc1 + CCOC(C)=O
298.15 K, 101 kPa
Details | viscosity [mPa·s]
x2 = 0.0784 | 7.003
x2 = 0.1426 | 5.938
x2 = 0.2347 | 4.711
x2 = 0.3002 | 3.881
x2 = 0.4001 | 3.047
x2 = 0.5 | 2.299
x2 = 0.5863 | 1.789
x2 = 0.6973 | 1.275
x2 = 0.799 | 0.9116
x2 = 0.898 | 0.6406

CCNCCO + CCOCCOCCOCC
viscosity, 101.3 kPa
Details | x1 = 0.313 | x1 = 0.548 | x1 = 0.732 | x1 = 0.879 | x2 = 0.1906 | x2 = 0.3546 | x2 = 0.5618
293.15 K | 1.74 mPa·s | 2.601 mPa·s and 2.603 mPa·s | 4.275 mPa·s | 7.482 mPa·s | 5.481 mPa·s | 3.2 mPa·s | 2.028 mPa·s
303.15 K | 1.397 mPa·s | 2.007 mPa·s and 2.027 mPa·s | 3.137 mPa·s | 5.176 mPa·s | 3.902 mPa·s | 2.422 mPa·s | 1.604 mPa·s
313.15 K | 1.14 mPa·s | 1.584 mPa·s and 1.616 mPa·s | 2.372 mPa·s | 3.717 mPa·s | 2.88 mPa·s | 1.867 mPa·s | 1.291 mPa·s
323.15 K | 0.9463 mPa·s | 1.276 mPa·s and 1.317 mPa·s | 1.844 mPa·s | 2.764 mPa·s | 2.189 mPa·s | 1.478 mPa·s | 1.056 mPa·s

CCCCOCCO + CCc1ccccc1
viscosity [mPa·s], 101 kPa
Details | 298.15 K | 308.15 K
x1 = 0.0546 | 0.678 | 0.568
x1 = 0.1505 | 0.769 | 0.643
x1 = 0.2513 | 0.877 | 0.732
x1 = 0.3501 | 1.003 | 0.835
x1 = 0.4528 | 1.161 | 0.961
x1 = 0.4982 | 1.24 | 1.025
x1 = 0.55 | 1.339 | 1.103
x1 = 0.6497 | 1.56 | 1.277
x1 = 0.7511 | 1.831 | 1.487
x1 = 0.8507 | 2.156 | 1.736
x1 = 0.9614 | 2.601 | 2.071

CC(C)OCCO + CN1CCCC1=O
298.15 K, 101 kPa
Details | viscosity [mPa·s]
x1 = 0.004 | 1.691
x1 = 0.0105 | 1.702
x1 = 0.0362 | 1.729
x1 = 0.0624 | 1.753
x1 = 0.088 | 1.764
x1 = 0.1136 | 1.779
x1 = 0.1577 | 1.814
x1 = 0.2017 | 1.843
x1 = 0.2462 | 1.882
x1 = 0.3116 | 1.929
x1 = 0.3451 | 1.955
x1 = 0.3748 | 1.969
x1 = 0.4055 | 1.989
x1 = 0.4494 | 2.011
x1 = 0.5127 | 2.045
x1 = 0.5735 | 2.073
x1 = 0.6423 | 2.096
x1 = 0.7229 | 2.118
x1 = 0.7639 | 2.134
x1 = 0.8354 | 2.127
x1 = 0.9185 | 2.12
x1 = 0.9736 | 2.109
x2 = 0.0086 | 2.107

CC(C)OCCO + CN(C)C=O
298.15 K, 101 kPa
Details | viscosity [mPa·s]
x1 = 0.0025 | 0.815
x1 = 0.0124 | 0.827
x1 = 0.0296 | 0.854
x1 = 0.048 | 0.885
x1 = 0.0898 | 0.932
x1 = 0.1476 | 1.006
x1 = 0.1908 | 1.066
x1 = 0.2558 | 1.142
x1 = 0.3145 | 1.213
x1 = 0.344 | 1.247
x1 = 0.3645 | 1.274
x1 = 0.4159 | 1.34
x1 = 0.4723 | 1.42
x1 = 0.52 | 1.491
x1 = 0.562 | 1.543
x1 = 0.6131 | 1.617
x1 = 0.6641 | 1.697
x1 = 0.7547 | 1.818
x1 = 0.7959 | 1.874
x1 = 0.8833 | 2.005
x1 = 0.9392 | 2.069
x1 = 0.9642 | 2.093
x2 = 0.0058 | 2.104

COC(=O)c1ccccc1 + CN(C)C=O
viscosity [mPa·s], 101.3 kPa
Details | x2 = 0.1213 | x2 = 0.1914 | x2 = 0.2976 | x2 = 0.3961 | x2 = 0.5284 | x2 = 0.6218 | x2 = 0.7468 | x2 = 0.8028 | x2 = 0.9311
298.15 K | 1.74 | 1.644 | 1.507 | 1.388 | 1.239 | 1.141 | 1.02 | 0.969 | 0.86
303.15 K | 1.622 | 1.536 | 1.413 | 1.306 | 1.169 | 1.078 | 0.963 | 0.915 | 0.81
308.15 K | 1.524 | 1.447 | 1.334 | 1.235 | 1.107 | 1.022 | 0.913 | 0.867 | 0.764
313.15 K | 1.305 | 1.252 | 1.173 | 1.1 | 1.003 | 0.936 | 0.848 | 0.809 | 0.721
